# According to PMC12903857:
# Experiments:
# [1] = target: T1, 14-3-3σ/C-RAF259 (Homo sapiens, UniProt P31947); assay: FA protein titration, C-RAF259 peptide; settings: appKd DMSO / appKd compound
# [2] = target: T1, 14-3-3σ/C-RAF259; assay: Fluorescence anisotropy (FA) compound titration; assay type: binding; settings: 10 nM C-RAF259-FAM 10-mer, 5 μΜ 14-3-3σ, overnight; read-out: Compound titrations EC50 value C-RAF259
# Experimental: (§1) In analogy to our previous work, two orthogonal assays were used for screening (Figure S2). […] Dose responses of compounds were performed in the absence and presence of the C-RAF259 phospho-peptide to distinguish between neutral binders and cooperative molecular glues. The experiment was performed as a time course, with measurements every 8 h, after an 1 h incubation. Additionally, the compounds were tested in a fluorescence anisotropy (FA) assay in the presence of the 5-carboxyfluorescein-(FAM)-labeled C-RAF259 peptide. […] The full dose–response data for all compounds are available in the SI (Tables S2–S5, Figures S5–S8, Figures S15–S18, Figures S25–S32, Figures S37–S39). The dose–response data from both assays were also visually compared in the form of bar graphs. […] For FA experiments, the EC50 values from the overnight measurement were calculated and plotted as bar graphs showing the […] log EC50 value (pEC50). Compounds acting as MGs were expected to show increases in both types of bar graphs.
# (§2) transferred in the assay plates.
# (§3) The reacton mixtures were incubated
# (§4) dispensed in the assay plates.
# (§5) incubaton at room temperature .
# [3] = target: T1, 14-3-3σ/C-RAF259; assay: Intact mass spectrometry assay with C-RAF259 phospho-peptide; assay type: binding; design: full-length for mass spectrometry and fluorescence anisotropy assays; made in house; host or cells: E. coli Rosetta 2(DE3)pLysS (14-3-3σ); peptides from Elim Biopharmaceuticals; settings: 1 μM compound, 100 nM 14-3-3σ, 18 µM peptide
# Experimental: as §1, §2, §3, §4, §5
# [4] = target: T2, 14-3-3σ (Homo sapiens, UniProt P31947); assay: Intact mass spectrometry assay, apo (no peptide); assay type: binding; design: full-length for mass spectrometry and fluorescence anisotropy assays; made in house; host or cells: E. coli Rosetta 2(DE3)pLysS, pPROEX HTb vector; settings: 1 μM compound, 100 nM 14-3-3σ
# T2 sequence (P31947 1-248): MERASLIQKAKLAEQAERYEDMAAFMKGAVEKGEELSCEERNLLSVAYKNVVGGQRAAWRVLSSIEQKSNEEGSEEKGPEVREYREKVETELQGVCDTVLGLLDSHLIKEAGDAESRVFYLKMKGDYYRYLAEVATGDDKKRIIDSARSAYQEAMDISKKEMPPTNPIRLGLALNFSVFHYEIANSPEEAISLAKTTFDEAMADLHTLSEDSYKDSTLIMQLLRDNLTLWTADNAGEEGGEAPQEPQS
# Experimental: as §1, §2, §3, §4, §5
Structure (SMILES),"Fold stabilization (100 µM compound), C-RAF259 (10mer) [1] [fold]",EC50 [2] [µM],"% bound, C-RAF259 (11mer), 1h [3] [%]","% bound, C-RAF259 (11mer), 8h [3] [%]","% bound, C-RAF259 (11mer), 16h [3] [%]","% bound, C-RAF259 (11mer), 24h [3] [%]","% bound, APO, 1h [4] [%]","% bound, APO, 8h [4] [%]","% bound, APO, 16h [4] [%]","% bound, APO, 24h [4] [%]"
O=C(CCl)NCC1CCN(S(=O)(=O)c2ccc(F)cc2)CC1 [Compound 11],4,17 ± 3,6.9,15,26,50.3,0,1.5,4.7,6.9
O=C(CCl)NCC1CCN(S(=O)(=O)c2ccc(C(F)(F)F)cc2)CC1 [Compound 18],15,17 ± 1,8.2,17.9,28.4,46.8,0,0.9,6.5,12.7
O=C(CCl)NCC1CCN(S(=O)(=O)c2ccc(F)c(F)c2)CC1 [Compound 28],–,88 ± 2,4.3,15.2,27.5,40,1.9,4.7,6.5,9.1
O=C(CCl)NCC1CCN(S(=O)(=O)c2cccc(C(F)(F)F)c2)CC1 [Compound 17],–,> 150,1.9,3.4,6.5,12.3,0,0,0.5,0.9
O=C(CCl)NCC1CCN(S(=O)(=O)Cc2ccc(Cl)cc2)CC1 [Compound 9],–,> 1000,0,0.5,2.9,3.2,0,0,1.5,1.9
O=C(CCl)NCC1CCN(S(=O)(=O)c2ccc(F)cc2F)CC1 [Compound 27],–,> 150,6.9,14.1,27.5,50.3,1,–,3.8,5.2
COc1ccc(S(=O)(=O)N2CCC(CNC(=O)CCl)CC2)cc1 [Compound 25],–,57 ± 9,10.6,15,27.1,44.4,0.5,1.9,7.4,13.8
N#Cc1ccc(S(=O)(=O)N2CCC(CNC(=O)CCl)CC2)cc1 [Compound 20],–,> 150,4.7,12.1,23.9,42.3,0,0.5,1.5,2.9

# Next, values leading:
"Fold stabilization (100 µM compound), C-RAF259 (10mer) [1] [fold]",EC50 [2] [µM],"% bound, C-RAF259 (11mer), 1h [3] [%]","% bound, C-RAF259 (11mer), 8h [3] [%]","% bound, C-RAF259 (11mer), 16h [3] [%]","% bound, C-RAF259 (11mer), 24h [3] [%]","% bound, APO, 1h [4] [%]","% bound, APO, 8h [4] [%]","% bound, APO, 16h [4] [%]","% bound, APO, 24h [4] [%]",Structure (SMILES)
39,2 ± 1,28,43.9,61.9,83.3,0,0.9,2.9,4.4,O=C(CCl)NCC1CCN(S(=O)(=O)c2ccc(Br)c(F)c2F)CC1 [Compound 38]
49,11 ± 1,25.8,39.4,49,84,0.5,1.9,4.7,8.2,CC1(CNC(=O)CCl)CCN(S(=O)(=O)c2ccc(Br)c(F)c2)CC1 [Compound 46]
13,9 ± 1,7.7,18.5,31.8,50.3,0,0,0.9,0.9,COc1ccc(S(=O)(=O)N2CCC(CNC(=O)CCl)CC2)cc1F [Compound 33]
6,12 ± 1,16.5,45.2,71.2,80.5,4.7,17.3,28,51.8,O=C(CCl)N1CC2CC1CN2S(=O)(=O)c1ccc(Br)c(F)c1 (centres unmarked) [Compound 58]
2,8 ± 1,–,38.1,59.1,81.4,0.9,1.9,2.5,3.8,O=C(CCl)NCC1CCN(S(=O)(=O)c2ccc(Cl)c(C(F)(F)F)c2)CC1 [Compound 31]
13,2 ± 1,35.9,60.5,78.9,93.9,0,0.5,1.5,4.7,O=C(CCl)NCC1CCN(S(=O)(=O)c2cc(F)c(Br)c(F)c2)CC1 [Compound 40]
18,25 ± 2,20.6,41.1,69.5,91.7,0,0.9,2.9,4.5,O=C(CCl)NCC1CCN(S(=O)(=O)c2ccc(Br)cc2F)CC1 [Compound 36]
3,12 ± 2,11,24.8,41.8,60.3,1,2.5,6.5,22.5,O=C(CCl)NCC1CCN(S(=O)(=O)c2ccc(F)c(Cl)c2)CC1 [Compound 30]
–,> 1000,0,0,0,3.8,0,0,0,0.5,O=C(CCl)NCC1CCN(S(=O)(=O)C2CC3(C2)CC(F)(F)C3)CC1 [Compound 35]
